“And” between values parts separate entries of the source, which are not always exact repeats. Equal entries are not always repeated.
Columns and labels:
[1] = tested on: metastatic ER+/PR+/HER2− breast cancer; assay: PET imaging in women with metastatic ER+/PR+/HER2− breast cancer; assay type: in vivo, human
Description: Example 5—Administration of ^64Cu-Sar-BBN for Radioimaging
(§1) A dose of 200 MBq ^64Cu-Sar-BBN was administered to a subject by slow intravenous bolus injection. The subject was imaged by PET/CT and the images analysed to determine the location, size and volume of any cancerous lesions present, which is indicated by the decay products of the ^64Cu radioisotope detected.
Women with clinical progression of metastatic ER+/PR+/HER2− breast cancer requiring re-staging were administered ^18FDG and images of each patient acquired by PET. Imaging with ^64Cu-Sar-BBN PET (with 200 MBq ^64Cu-Sar-BBN administered by IV injection) was performed within 2 weeks of imaging by ^18FDG. Qualitative interpretation of the PET studies was performed by accredited nuclear medicine physicians. Quantitative analysis was performed using MIM Software, Cleveland. Comparison of the images obtained from each subject after administration of both ^18FDG and ^64Cu-Sar-BBN can be seen in FIGS. 1 to 6 (see Table 1).

prostate cancer = assay: PET imaging in post-radical prostatectomy prostate cancer patients with serial negative PSMA-PET; assay type: in vivo, human; conditions: FIGS. 7 to 10
Description: as §1
All patients received on average 200 MBq of [^64Cu]Cu-SAR-BBN intravenously with 60 minutes for uptake. Patient were scanned at 60-180 minutes post-injection with arms up, from vertex to mid thighs and at each bed position for two minutes. A low dose CT scan was performed with for attenuation correction and anatomical localisation. Comparison of the images obtained from each subject after administration of both ^18FDG and ^64Cu-Sar-BBN can be seen in FIGS. 7 to 10.

[2] = tested on: metastatic ER+/PR+/HER2− breast cancer; conditions: compared to triple negative subtypes; cited from earlier work
[3] = 18FDG PET, per patient, listed as FDG

Structure (SMILES)	FDG SUVmax [1, 3]	FDG TTV (total tumor volume) [1, 3]	lesion detection compared with the other imaging ([1]; breast cancer patients, FIGS. 1 to 6)	number of lesions identified ([1]; patient of FIG. 4)	lesion detection (prostate cancer)	sensitivity of 18FDG-PET for ER+/PR+ breast cancer [2]
OC[C@H]1OC(O)[C@H]([18F])[C@@H](O)[C@@H]1O (stereo partly shown) [^18FDG]	7 (2×) and 20 and <3 and 8 and 11	91 and 168 and 0 and 8 and 2 and 504	did not reveal any tumors	less than 3	failed to identify any recurrent lesions	lower sensitivity for ER+/PR+ breast cancer, when compared to triple negative
O=C(O)CCc1ccc(O)c(CN(CCN(CC(=O)O)Cc2cc(CCC(=O)NCCCCCC(=O)NCCCC[C@H](NC(=O)N[C@@H](CCC(=O)O)C(=O)O)C(=O)O)ccc2O)CC(=O)O)c1.[Ga+3] [^68Ga-PSMA-11]	–	–	–	–	serial negative PSMA-PET	–

— patent US20260345838A1, “IDENTIFICATION AND/OR TREATMENT OF CANCER” (CLARITY PHARMACEUTICALS LIMITED, priority 2022, published 2026)
